Data published in patent US20140235856A1, “FIBROBLASTS CELLULAR MODEL FOR ASSESSING EFFICACY OF CANCER TREATMENTS BY SHH/PTCH PATHWAY ANTAGONISTS” (CNRS, priority 2011, published 2014).

System: SHH/PTCH pathway (GLI1 mRNA) in NBCCS 6 E6/E7 fibroblasts
Assay: Comparative Q-PCR analysis of GLI1 mRNA accumulation after treatment of fibroblast cell lines with purmorphamine
Format: cell-based, human
Conditions: NBCCS 6 E6/E7 fibroblasts compared with CTRL E6/E7 fibroblasts, same experimental conditions; 0.1% DMSO; Q-PCR (FIG. 4)
Procedure: Human primary fibroblasts (named CTRL or NBCCS) were isolated from a healthy non photo-exposed skin biopsy of either a control patient or a patient with caracteristic NBCCS after informed consent (Otto et al., 1999; Valin et al., 2009)
The CTRL and NBCCS6 cell lines were then immortalized by retroviral transduction with pLE6/E7SN resulting in CTRL and NBCCS-E6-E7 (FIG. 1) (Halbert et al., 1991, 1992). Cells were grown at 37° C. in a humified atmosphere containing 5% CO2, DMEM medium, 50 U/ml penicillin, 50 μg/ml streptomycin, 0.125 μg/ml amphotericin B, 2 mM L-Glutamine, 1 mM Sodium pyruvate, 1× non essential amino acids.
Total RNA was extracted with RNeasy® Mini kit according to manufacturer's instructions (Qiagen, Hilden, Germany). Reverse transcription was performed on 1 μg total RNA with Superscript II Reverse Transcriptase (Roche Applied Science, Basel, Switzerland) by using random primers. Q-PCR was carried out using the 7900 HT Fast Real-Time PCR System (Applied Biosystems, Foster City, Calif., USA).
To evaluate small Molecules Modulators of the SHH/PTCH pathway, the Purmorphamine (SMO agonist) was used. Purmorphamine (SMO agonist) was diluted in DMSO at stock concentrations of 50 mM and 10 mM, respectively. To avoid side effects and toxicity, the final concentration of DMSO was fixed to 0.1% DMSO.

`c1ccc2c(Oc3nc(Nc4ccc(N5CCOCC5)cc4)c4ncn(C5CCCCC5)c4n3)cccc2c1` [Purmorphamine] was tested, and the “GLI1 mRNA accumulation response, NBCCS 6 E6/E7 versus CTRL cells” value was 7 × times.
